Measurements as given in patent US10022387B2, “Aza-heteroaryl compounds as PI3K-gamma inhibitors” (Incyte Corporation, priority 2015, dated 2018).
Counter-ions that a name gives are not always drawn.

Test system: Phosphorylated Ribosomal Protein S6 (RPS6) in THP-1 cells
Test: THP-1 RPS6 ELISA Assay
Type: cell-based
Details: Homo sapiens, 2 hours with compound, 10 nM MCP-1 for 15 minutes, read-out: THP p-RPS6 ELISA IC50
Description: To measure the Phosphorylated Ribosomal Protein S6 (RPS6) in cell lysates, THP-1 cells (Human Acute Monocytic Leukemia) are purchased from ATCC (Manassas, Va.) and maintained in RPMI with 10% FBS (Gibco/Life Technologies, Carlsbad, Calif.). For the assay, THP-1 cells are serum starved overnight in RPMI, then plated in RPMI (2×10^5 cells/well in 90 μL) into 96-well flat-bottom tissue culture treated plates (Corning, Corning, N.Y.), in the presence or absence of a concentration range of test compounds. Covered plates are incubated for 2 hours at 37° C., 5% CO2 then treated with or without 10 nM MCP-1 (MYBioSource, San Diego, Calif.) for 15 minutes at 37° C., 5% CO2. Plates are centrifuged at 1600 RPM and supernatants are removed. Cells are lysed in Lysis Buffer (Cell Signaling, Danvers, Mass.) with Protease Inhibitor (Calbiochem/EMD, Germany), PMSF (Sigma, St. Louis, Mo.), HALTS (Thermo Fisher, Rockford, Ill.) for 30 min on wet ice. Cell lysates are frozen at −80° C. before testing. The lysates are tested in the Human/Mouse/Rat Phospho-RPS6 ELISA (R&D Systems, Inc. Minn, Minn.). The plate is measured using a microplate reader (SpectraMax M5—Molecular Devices, LLC Sunnyvale, Calif.) set to 450 nm with a wavelength correction of 540. IC50 determination is performed by fitting the curve of inhibitor percent inhibition versus the log of the inhibitor concentration using the GraphPad Prism 5.0 software.

Row | Compound | IC50 [µM]
1 | CCS(=O)(=O)Nc1cc(-c2ccc3nc(-c4nc5ccccc5[nH]4)oc3c2)cnc1C [Example 25, N-(5-(2-(1H-Benzo[d]imidazol-2-yl)benzo[d]oxazol-6-yl)-2-methylpyridin-3-yl)ethanesulfonamide] | < 5
2 | COc1cncc(-c2ccc3nc(-c4cnc(C5CC5)[nH]4)oc3c2)c1 [Example 42, 2-(2-Cyclopropyl-1H-imidazol-5-yl)-6-(5-methoxypyridin-3-yl)benzo[d]oxazole] | ≥ 5
3 | Cc1ncc(-c2ccc3nc(-c4nc5ccccc5[nH]4)oc3c2)cc1NS(=O)(=O)c1ccc(F)cc1 [Example 28, N-(5-(2-(1H-Benzo[d]imdiazol-2-yl)benzo[d]oxazol-6-yl)-2-methylpyridin-3-yl)-4-fluorobenzene-sulfonamide] | < 1
4 | CN1CCN(S(=O)(=O)Nc2cc(-c3ccc4nc(-c5nc6ccccc6[nH]5)oc4c3)cnc2F)CC1 [Example 32, N-(5-(2-(1H-Benzo[d]imidazol-2-yl)benzo[d]oxazol-6-yl)-2-fluoropyridin-3-yl)-4-methylpiperazine-1-sulfonamide] | < 1
5 | Cc1ncc(-c2ccc3nc(-c4nc5ccccc5[nH]4)oc3c2)cc1NS(=O)(=O)N(C)C [Example 22, N′-{5-[2-(1H-Benzimidazol-2-yl)-1,3-benzoxazol-6-yl]-2-methylpyridin-3-yl}-N,N-dimethylsulfamide] | < 1
6 | CN(C)S(=O)(=O)Nc1cncc(-c2ccc3nc(-c4ncc[nH]4)oc3c2)c1 [Example 41, N′-{5-[2-(1H-Imidazol-2-yl)-1,3-benzoxazol-6-yl]pyridin-3-yl}-N,N-dimethylsulfamide] | < 1
7 | CN1CCN(S(=O)(=O)Nc2cncc(-c3ccc4nc(-c5nc6ccccc6[nH]5)oc4c3)c2)CC1 [Example 31, N-(5-(2-(1H-Benzo[d]imidazol-2-yl)benzo[d]oxazol-6-yl)pyridin-3-yl)-4-methylpiperazine-1-sulfonamide] | < 1
8 | O=S(=O)(Nc1cncc(-c2ccc3nc(-c4nc5ccccc5[nH]4)oc3c2)c1)c1ccc(F)cc1 [Example 17, N-(5-(2-(1H-Benzo[d]imidazol-2-yl)benzo[d]oxazol-6-yl)pyridin-3-yl)-4-fluorobenzenesulfonamide] | < 1
9 | CCS(=O)(=O)Nc1cc(-c2ccc3nc(-c4nc5ccccc5[nH]4)oc3c2)cnc1Cl [Example 26, N-(5-(2-(1H-Benzo[d]imidazol-2-yl)benzo[d]oxazol-6-yl)-2-chloropyridin-3-yl)ethanesulfonamide] | < 1
10 | c1ccc(Cn2cc(-c3ccc4nc(-c5nc6ccccc6[nH]5)oc4c3)cn2)cc1 [Example 48, 2-(1H-Benzimidazol-2-yl)-6-(1-benzyl-1H-pyrazol-4-yl)-1,3-benzoxazole] | ≥ 5
11 | CC(C)Oc1cncc(-c2ccc3nc(-c4nc5ccccc5[nH]4)oc3c2)c1 [Example 15, 2-(1H-Benzo[d]imidazol-2-yl)-6-(5-isopropoxypyridin-3-yl)benzo[d]oxazole] | < 5
12 | COc1cncc(-c2ccc3nc(-c4nc5ccccc5[nH]4)oc3c2)c1 [Example 4, 2-(1H-Benzo[d]imidazol-2-yl)-6-(5-methoxypyridin-3-yl)benzo[d]oxazole trifluoroacetate] | < 5
13 | CC(C)S(=O)(=O)Nc1cncc(-c2ccc3nc(-c4nc5ccccc5[nH]4)oc3c2)c1 [Example 24, N-(5-(2-(1H-Benzo[d]imidazol-2-yl)benzo[d]oxazol-6-yl)pyridin-3-yl)propane-2-sulfonamide] | ≥ 5
14 | O=S(=O)(Nc1cncc(-c2ccc3nc(-c4nc5ccccc5[nH]4)oc3c2)c1)N1CCCCC1 [Example 20, N-(5-(2-(1H-Benzo[d]imidazol-2-yl)benzo[d]oxazol-6-yl)pyridin-3-yl)piperidine-1-sulfonamide] | < 5
15 | O=S(=O)(Nc1cc(-c2ccc3nc(-c4nc5ccccc5[nH]4)oc3c2)cnc1F)c1ccc(F)cc1 [Example 30, N-(5-(2-(1H-Benzo[d]imidazol-2-yl)benzo[d]oxazol-6-yl)-2-fluoropyridin-3-yl)-4-fluorobenzene-sulfonamide] | < 1

The remaining lines, values ahead:

Row | IC50 [µM] | Compound
16 | ≥ 5 | CCS(=O)(=O)n1ncc2ccc(-c3ccc4nc(-c5nc6ccccc6[nH]5)oc4c3)cc21 [Example 52, 6-[1-(Ethylsulfonyl)-1H-indazol-6-yl]-2-(1H-benzimidazol-2-yl)-1,3-benzoxazole]
17 | ≥ 5 | CCCc1nc(-c2nc3ccc(-c4cncc(NS(=O)(=O)CC)c4)cc3o2)[nH]c1C [Example 64, N-(5-(2-(5-Methyl-4-propyl-1H-imidazol-2-yl)benzo[d]oxazol-6-yl)pyridin-3-yl)ethanesulfonamide bis(trifluoroacetate)]
18 | < 1 | Cc1nc(-c2nc3ccc(-c4cncc(C(O)C(F)(F)F)c4)cc3o2)[nH]c1C (centres unmarked) [Example 67, 1-(5-(2-(4,5-Dimethyl-1H-imidazol-2-yl)benzo[d]oxazol-6-yl)pyridin-3-yl)-2,2,2-trifluoroethanol bis(trifluoroacetate)]
19 | < 5 | CCS(=O)(=O)Nc1cc(-c2ccc3nc(-c4nc5c([nH]4)CCCC5)oc3c2)cnc1OC [Example 66, N-(2-Methoxy-5-(2-(4,5,6,7-tetrahydro-1H-benzo[d]imidazol-2-yl)benzo[d]oxazol-6-yl)pyridin-3-yl)ethanesulfonamide]
20 | < 1 | O=S(=O)(CC(F)(F)F)Nc1cncc(-c2ccc3nc(-c4nc5ccccc5[nH]4)oc3c2)c1 [Example 77, N-(5-(2-(1H-Benzo[d]imidazol-2-yl)benzo[d]oxazol-6-yl)pyridin-3-yl)-2,2,2-trifluoroethanesulfonamide bis(trifluoroacetate)]
21 | < 1 | Cc1ncc(-c2ccc3nc(-c4nc5ccccc5[nH]4)oc3c2)cc1NS(=O)(=O)CC(F)(F)F [Example 76, N-(5-(2-(1H-Benzo[d]imidazol-2-yl)benzo[d]oxazol-6-yl)-2-methylpyridin-3-yl)-2,2,2-trifluoroethanesulfonamide bis(trifluoroacetate)]
22 | ≥ 5 | CP(C)(=O)c1cncc(-c2ccc3nc(-c4nc5ccccc5[nH]4)oc3c2)c1 [Example 72, 2-(1H-Benzo[d]imidazol-2-yl)-6-(5-(dimethylphosphoryl)pyridin-3-yl)benzo[d]oxazole bis(trifluoroacetate)]
23 | ≥ 5 | OC(c1cncc(-c2ccc3nc(-c4nc5ccccc5[nH]4)oc3c2)c1)C(F)(F)F (centres unmarked) [Example 74, 1-(5-(2-(1H-Benzo[d]imidazol-2-yl)benzo[d]oxazol-6-yl)pyridin-3-yl)-2,2,2-trifluoroethanol bis(trifluoroacetate)]
24 | ≥ 5 | CCn1ncc2ccc(-c3ccc4nc(-c5nc6ccccc6[nH]5)oc4c3)cc21 [Example 54, 2-(1H-Benzimidazol-2-yl)-6-(1-ethyl-1H-indazol-6-yl)-1,3-benzoxazole bis(trifluoroacetate)]
25 | ≥ 5 | CCn1ncc2ncc(-c3ccc4nc(-c5nc6ccccc6[nH]5)oc4c3)cc21 [Example 57, 6-[2-(1H-Benzimidazol-2-yl)-1,3-benzoxazol-6-yl]-1-ethyl-1H-pyrazolo[4,3-b]pyridine tris(trifluoroacetate)]
26 | < 5 | OC(c1cncc(-c2ccc3nc(-c4nc5c([nH]4)CCCC5)oc3c2)c1)C(F)(F)F (centres unmarked) [Example 68, 2,2,2-Trifluoro-1-(5-(2-(4,5,6,7-tetrahydro-1H-benzo[d]imidazol-2-yl)benzo[d]oxazol-6-yl)pyridin-3-yl)ethanol]
